Read-outs that look alike come from different tables or passages of the source.
Assays:
Pityrosporum ovalae = test: minimum inhibitory doses (M.I.C.) for Pityrosporum ovalae; type: cell-based
Excerpt: (§1) Undecylenamidopropylbetaine (Amphoram®U from CECA S.A.) was compared with piroctone olamine (CFTA) or 1-hydroxy-4-methyl-6-(2,4,4-trimethylpentyl)-2(1H)pyridone; ethanol (1:1) salt (RN=68890-66-4), taken in its commercial form as Octopyrox® (Hoechst), at the minimum inhibitory doses (M.I.C.) for Pityrosporum ovalae, i.e., respectively, 2% and 0.2% beforehand.

dandruff = test: antidandruff efficacy test over 15 days on a Test Panel of 20 individuals; type: in vivo; conditions: for Area occupied by dandruff, percentage of variations on D15 relative to D1 / Dandruff removal index, percentage of variations on D15 relative to D1: products at their M.I.C. (2% and 0.2%)
Excerpt: as §1

[1] = sebumetry index measured with the Courage-Khazka sebumeter, Test Panel of 20 individuals; conditions: 15 days
[2] = background statement; cited from earlier work
[3] = in vivo

Compound	minimum inhibitory doses (M.I.C.) for Pityrosporum ovalae (Pityrosporum ovalae) [%]	state of dandruff (decrease in the area occupied and increase in the dandruff removal index) (dandruff)	Area occupied by dandruff, percentage of variations on D15 relative to D1 (dandruff) [%]	Dandruff removal index, percentage of variations on D15 relative to D1 (dandruff) [%]	Sebumetry index, percentage of variation on D15 relative to D1 [1] [%]	solubility in water [2]	Sebumetry index, percentage of variation on D15 relative to D1 [3] [%]
CCO.Cc1cc(CC(C)CC(C)(C)C)n(O)c(=O)c1 (stereo not drawn) [Octopyrox, 1-hydroxy-4-methyl-6-(2,4,4-trimethylpentyl)-2(1H)pyridone; ethanol (1:1) salt]	0.2	remained stable	−7	−5	−4	–	–
CC(C)(C)C(=O)C(Oc1ccc(Cl)cc1)n1ccnc1 (stereo not drawn) [climbazole]	–	–	–	–	–	water-insoluble	–
N-(carboxymethyl)-N,N-dimethyl-3-[(1-oxoundecenyl)amino]-1-propanaminium hydroxide [Amphoram U]	2	30 to 40%	−29	−36	–	–	−7
zinc pyrithione	–	–	–	–	–	water-insoluble	–

Reference: US6410593B1, “Antidandruff compositions” (priority 1998, dated 2002)
